Experimental data taken from ChEMBL document CHEMBL1134916, “Synthesis and evaluation of 7-substituted-3-cyclobutylamino-4H-1,2,4-benzothiadiazine-1,1-dioxide derivatives as K(ATP) channel agonists” (Bioorg Med Chem Lett, 2002).

Columns and labels:
[1] = Acid dissociation constant was determined; assay type: ADME
[2] = target: T1, Sulfonylurea receptor 1, Kir6.2 (Homo sapiens, UniProt Q09428+Q14654); assay: Inhibition of Beta-cell KATP channel; assay type: functional
[3] = target: Sulfonylurea receptor 1, Kir6.2 (Homo sapiens) (UniProt Q14654+Q09428); assay: Percentage of maximal agonistic response of Beta-cell KATP channel as compared to diazoxide (50 uM); assay type: functional
[4] = target: T1, Sulfonylurea receptor 1, Kir6.2; assay: Negative log EC50 for Beta-cell KATP channel; assay type: functional

T1 sequence (Q14654 whole entry): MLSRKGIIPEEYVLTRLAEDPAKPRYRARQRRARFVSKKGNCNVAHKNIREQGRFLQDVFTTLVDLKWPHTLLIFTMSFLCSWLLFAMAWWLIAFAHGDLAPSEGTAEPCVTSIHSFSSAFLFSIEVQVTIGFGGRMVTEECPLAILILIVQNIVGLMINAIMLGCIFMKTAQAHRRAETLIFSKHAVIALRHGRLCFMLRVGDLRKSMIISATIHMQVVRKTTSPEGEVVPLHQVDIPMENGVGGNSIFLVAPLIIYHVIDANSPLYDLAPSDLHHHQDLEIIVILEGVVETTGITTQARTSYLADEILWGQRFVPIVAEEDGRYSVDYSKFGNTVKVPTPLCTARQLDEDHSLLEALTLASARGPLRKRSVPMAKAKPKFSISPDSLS
T1 sequence (Q09428 whole entry): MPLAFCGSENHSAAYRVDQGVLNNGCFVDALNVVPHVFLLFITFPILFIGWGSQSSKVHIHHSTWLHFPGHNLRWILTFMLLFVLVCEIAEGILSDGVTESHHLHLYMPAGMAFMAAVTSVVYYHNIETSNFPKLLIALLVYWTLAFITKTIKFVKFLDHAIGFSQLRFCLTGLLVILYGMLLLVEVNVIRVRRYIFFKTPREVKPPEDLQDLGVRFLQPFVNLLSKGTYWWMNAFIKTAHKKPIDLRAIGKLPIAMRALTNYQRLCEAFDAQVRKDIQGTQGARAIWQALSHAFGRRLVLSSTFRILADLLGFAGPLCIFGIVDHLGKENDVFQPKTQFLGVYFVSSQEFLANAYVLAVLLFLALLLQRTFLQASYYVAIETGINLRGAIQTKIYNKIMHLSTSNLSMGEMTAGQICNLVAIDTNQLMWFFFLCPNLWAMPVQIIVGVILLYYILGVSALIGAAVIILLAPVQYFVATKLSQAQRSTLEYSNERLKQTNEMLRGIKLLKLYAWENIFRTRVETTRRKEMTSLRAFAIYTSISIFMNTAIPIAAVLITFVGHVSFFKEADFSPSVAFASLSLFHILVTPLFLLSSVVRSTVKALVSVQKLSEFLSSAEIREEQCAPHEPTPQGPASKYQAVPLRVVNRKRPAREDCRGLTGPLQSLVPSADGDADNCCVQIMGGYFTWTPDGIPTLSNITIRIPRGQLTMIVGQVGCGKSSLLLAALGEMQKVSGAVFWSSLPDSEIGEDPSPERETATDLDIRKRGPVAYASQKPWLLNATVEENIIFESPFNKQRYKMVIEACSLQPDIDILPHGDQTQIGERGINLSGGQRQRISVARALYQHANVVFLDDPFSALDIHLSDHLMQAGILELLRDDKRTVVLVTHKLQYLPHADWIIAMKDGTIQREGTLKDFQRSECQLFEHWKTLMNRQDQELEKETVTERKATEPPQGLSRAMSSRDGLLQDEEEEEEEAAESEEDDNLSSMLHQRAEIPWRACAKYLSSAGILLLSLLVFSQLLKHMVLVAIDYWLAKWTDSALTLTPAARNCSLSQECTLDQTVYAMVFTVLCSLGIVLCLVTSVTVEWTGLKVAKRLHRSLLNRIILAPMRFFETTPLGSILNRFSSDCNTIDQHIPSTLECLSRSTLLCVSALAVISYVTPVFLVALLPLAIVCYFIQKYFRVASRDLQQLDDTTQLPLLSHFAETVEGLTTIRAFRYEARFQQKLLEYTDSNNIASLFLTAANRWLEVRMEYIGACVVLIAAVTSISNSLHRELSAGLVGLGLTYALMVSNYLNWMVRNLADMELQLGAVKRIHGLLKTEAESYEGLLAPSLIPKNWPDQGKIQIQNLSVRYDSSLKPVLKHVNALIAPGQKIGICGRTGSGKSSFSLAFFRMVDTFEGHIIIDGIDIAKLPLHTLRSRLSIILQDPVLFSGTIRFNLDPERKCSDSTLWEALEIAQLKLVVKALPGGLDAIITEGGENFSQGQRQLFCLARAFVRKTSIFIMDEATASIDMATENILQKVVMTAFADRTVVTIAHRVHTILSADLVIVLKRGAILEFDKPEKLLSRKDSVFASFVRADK

SMILES	pKa [1]	EC50 [2]	Max [3]	EC50 [4]
O=[N+]([O-])c1ccc2c(c1)S(=O)(=O)NC(NC1CCC1)=N2	7.89	530 nM	30.9%	–
CC1=Nc2ccc(Cl)cc2S(=O)(=O)N1	–	–	100%	–
O=S1(=O)N=C(NC2CCC2)Nc2ccc(Cl)cc21	9.36	196 nM	137%	200 nM
CC1=NS(=O)(=O)c2cc(Cl)ccc2N1 [DIAZOXIDE]	8.62	–	–	–

Further compounds by falling EC50 [2], results first:

pKa [1]	EC50 [2]	Max [3]	EC50 [4]	SMILES
–	31000 nM	96.9%	31600 nM	Nc1ccc2c(c1)S(=O)(=O)NC(NC1CCC1)=N2
–	3870 nM	122%	3980 nM	COc1ccc2c(c1)S(=O)(=O)NC(NC1CCC1)=N2
–	1960 nM	109%	2000 nM	O=S1(=O)N=C(NC2CCC2)Nc2ccccc21
9.57	356 nM	136%	398 nM	O=S1(=O)NC(NC2CCC2)=Nc2ccc(F)cc21
